Results published in ChEMBL document CHEMBL3102790, “Synthesis of quercetin glycosides and their melanogenesis stimulatory activity in B16 melanoma cells” (Bioorg Med Chem, 2014).

Columns and labels:
B16-F10 [1] = experiment: Induction of melanogenesis in mouse B16F10 cells assessed as intracellular melanin level at 125 uM after 72 hrs; format: functional
B16-F10 [2] = experiment: Induction of melanogenesis in mouse B16F10 cells assessed as intracellular melanin level at 250 uM after 72 hrs; format: functional
[3] = Cytotoxicity against mouse B16F10 cells assessed as cell viability at 500 uM by MTT assay; format: cell-based, B16-F10; details: read-out: Activity
[4] = Cytotoxicity against mouse B16F10 cells assessed as cell viability at 250 uM by MTT assay; format: cell-based, B16-F10; details: read-out: Activity
B16-F10 [5] = experiment: Induction of melanogenesis in mouse B16F10 cells assessed as intracellular melanin level at 500 uM after 72 hrs; format: functional
[6] = Cytotoxicity against mouse B16F10 cells assessed as cell viability at 125 uM by MTT assay; format: cell-based, B16-F10; details: read-out: Activity
[7] = Cytotoxicity against mouse B16F10 cells assessed as cell viability at 10 uM by MTT assay; format: cell-based, B16-F10; details: read-out: Activity
[8] = Cytotoxicity against mouse B16F10 cells assessed as cell viability at 200 uM by MTT assay; format: cell-based, B16-F10; details: read-out: Activity
[9] = molecular target: T1, Tyrosinase (Agaricus bisporus) (UniProt O42713); experiment: Induction of mushroom tyrosinase activity using L-tyrosine as substrate at 50 uM after 30 mins
T1 sequence (whole entry): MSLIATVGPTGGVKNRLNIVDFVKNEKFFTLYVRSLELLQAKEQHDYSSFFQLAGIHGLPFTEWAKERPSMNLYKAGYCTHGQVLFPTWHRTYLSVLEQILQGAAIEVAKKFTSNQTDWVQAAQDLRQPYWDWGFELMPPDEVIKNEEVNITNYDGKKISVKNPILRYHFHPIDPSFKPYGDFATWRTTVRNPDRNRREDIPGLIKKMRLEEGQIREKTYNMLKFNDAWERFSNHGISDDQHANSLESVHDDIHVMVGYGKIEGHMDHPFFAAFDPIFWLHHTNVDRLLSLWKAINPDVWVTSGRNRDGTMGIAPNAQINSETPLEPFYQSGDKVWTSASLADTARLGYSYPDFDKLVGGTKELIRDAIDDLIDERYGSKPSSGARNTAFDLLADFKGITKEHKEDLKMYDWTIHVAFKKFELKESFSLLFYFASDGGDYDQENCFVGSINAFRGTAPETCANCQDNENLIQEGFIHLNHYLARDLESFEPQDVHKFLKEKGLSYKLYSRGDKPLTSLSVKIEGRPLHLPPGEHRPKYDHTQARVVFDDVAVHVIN

[10] = molecular target: T1, Tyrosinase (Agaricus bisporus); experiment: Induction of mushroom tyrosinase activity using L-DOPA as substrate at 50 uM after 30 mins
B16-F10 [11] = experiment: Induction of melanogenesis in mouse B16F10 cells assessed as intracellular melanin level at 200 uM after 72 hrs; format: functional
[12] = molecular target: T1, Tyrosinase (Agaricus bisporus); experiment: Induction of mushroom tyrosinase activity using L-DOPA as substrate at 200 uM after 30 mins
[13] = molecular target: T1, Tyrosinase (Agaricus bisporus); experiment: Induction of mushroom tyrosinase activity using L-DOPA as substrate at 100 uM after 30 mins
B16-F10 [14] = experiment: Induction of melanogenesis in mouse B16F10 cells assessed as intracellular melanin level at 100 uM after 72 hrs; format: functional
B16-F10 [15] = experiment: Induction of melanogenesis in mouse B16F10 cells assessed as intracellular melanin level after 72 hrs; format: functional, cell-based
[16] = molecular target: T1, Tyrosinase (Agaricus bisporus); experiment: Induction of mushroom tyrosinase activity using L-tyrosine as substrate at 100 uM after 30 mins
B16-F10 [17] = experiment: Induction of melanogenesis in mouse B16F10 cells assessed as intracellular melanin level at 10 uM after 72 hrs; format: functional
[18] = Cytotoxicity against mouse B16F10 cells assessed as cell viability at 100 uM by MTT assay; format: cell-based, B16-F10; details: read-out: Activity
[19] = molecular target: T1, Tyrosinase (Agaricus bisporus); experiment: Induction of mushroom tyrosinase activity using L-tyrosine as substrate at 200 uM after 30 mins

| SMILES | Activity (B16-F10 [1]) [%] | Activity (B16-F10 [2]) [%] | viability at 500 µM [3] [%] | viability at 250 µM [4] [%] | Activity (B16-F10 [5]) [%] | viability at 125 µM [6] [%] | viability at 10 µM [7] [%] | viability at 200 µM [8] [%] | Activity [9] [%] | Activity [10] [%] | Activity (B16-F10 [11]) [%] | Activity [12] [%] | Activity [13] [%] | Activity (B16-F10 [14]) [%] | Activity (B16-F10 [15]) | Activity [16] [%] | Activity (B16-F10 [17]) [%] | viability at 100 µM [18] [%] | Activity [19] [%] |
| --- | --- | --- | --- | --- | --- | --- | --- | --- | --- | --- | --- | --- | --- | --- | --- | --- | --- | --- | --- |
| Cn1c(=O)c2nc[nH]c2n(C)c1=O.O [THEOPHYLLINE] | 127.6 | 131.7 | 91.4 | 94.4 | 166.8 | 95.5 |  |  |  |  |  |  |  |  |  |  |  |  |  |
| O=c1c(O[C@@H]2O[C@H](CO)[C@@H](O)[C@H](O)[C@H]2O)c(-c2ccc(O)c(O)c2)oc2cc(O)cc(O)c12 [ISOQUERCETIN] |  |  |  |  |  |  | 105 | 68.4 | 112 | 107 | 206.9 | 116 | 110 | 157.1 | Dose-dependent effect | 96.2 | 116.3 | 80.9 | 104 |
| O=c1c(O[C@@H]2O[C@H](CO)[C@@H](O[C@@H]3O[C@H](CO)[C@@H](O)[C@H](O)[C@H]3O)[C@H](O)[C@H]2O)c(-c2ccc(O)c(O)c2)oc2cc(O)cc(O)c12 |  |  |  |  |  |  | 99.6 | 81.1 | 97.5 | 103 | 176 | 112 | 107 | 126.8 | Dose-dependent effect | 95 | 102.6 | 93.2 | 82.2 |
| O=c1c(O[C@@H]2O[C@H](CO)[C@@H](O)[C@H](O)[C@H]2O)c(-c2ccc(O[C@@H]3O[C@H](CO)[C@@H](O)[C@H](O)[C@H]3O)c(O)c2)oc2cc(O)cc(O)c12 |  |  |  |  |  |  | 107 | 77.4 | 101 | 102 | 92.6 | 99.3 | 99.3 | 90.4 |  | 98.8 | 89.7 | 104 | 94.3 |
| O=c1c(O[C@@H]2O[C@H](CO)[C@@H](O[C@@H]3O[C@H](CO)[C@@H](O)[C@H](O)[C@H]3O)[C@H](O)[C@H]2O)c(-c2ccc(O)c(O)c2)oc2cc(O[C@@H]3O[C@H](CO)[C@@H](O)[C@H](O)[C@H]3O)cc(O)c12 |  |  |  |  |  |  | 95.1 | 98.7 | 103 | 102 | 119 | 104 | 104 | 78.9 |  | 102 | 91.1 | 113 | 104 |
| O=c1c(O[C@@H]2O[C@H](CO)[C@@H](O)[C@H](O)[C@H]2O)c(-c2ccc(O[C@@H]3O[C@H](CO)[C@@H](O[C@@H]4O[C@H](CO)[C@@H](O)[C@H](O)[C@H]4O)[C@H](O)[C@H]3O)c(O)c2)oc2cc(O)cc(O)c12 |  |  |  |  |  |  | 97.8 | 106 | 88.9 | 103 | 96.3 | 109 | 105 | 90.9 |  | 85.2 | 96.8 | 107 | 82.4 |
| O=c1c(O[C@@H]2O[C@H](CO)[C@@H](O[C@@H]3O[C@H](CO)[C@@H](O)[C@H](O)[C@H]3O)[C@H](O)[C@H]2O)c(-c2ccc(O[C@@H]3O[C@H](CO)[C@@H](O[C@@H]4O[C@H](CO)[C@@H](O)[C@H](O)[C@H]4O)[C@H](O)[C@H]3O)c(O)c2)oc2cc(O)cc(O)c12 |  |  |  |  |  |  | 107 | 99.7 | 100 | 107 | 99.7 | 108 | 103 | 84.77 |  | 95 | 79.7 | 106 | 97.6 |
| O=c1c(O[C@@H]2O[C@H](CO)[C@@H](O)[C@H](O)[C@H]2O)c(-c2ccc(O)c(O)c2)oc2cc(O[C@@H]3O[C@H](CO)[C@@H](O)[C@H](O)[C@H]3O)cc(O)c12 |  |  |  |  |  |  | 97.7 | 114 | 92.8 | 103 | 86.5 | 106 | 103 | 113.9 |  | 85.5 | 85 | 78 | 86.7 |
| O=c1c(O[C@@H]2O[C@H](CO)[C@@H](O)[C@H](O)[C@H]2O)c(-c2ccc(O)c(O)c2)oc2cc(O[C@@H]3O[C@H](CO)[C@@H](O[C@@H]4O[C@H](CO)[C@@H](O)[C@H](O)[C@H]4O)[C@H](O)[C@H]3O)cc(O)c12 |  |  |  |  |  |  | 95.1 | 111 | 95.2 | 108 | 83.8 | 110 | 105 | 78.9 |  | 89 | 91.1 | 113 | 85.6 |
| O=c1c(O[C@@H]2O[C@H](CO)[C@@H](O[C@@H]3O[C@H](CO)[C@@H](O)[C@H](O)[C@H]3O)[C@H](O)[C@H]2O)c(-c2ccc(O[C@@H]3O[C@H](CO)[C@@H](O)[C@H](O)[C@H]3O)c(O)c2)oc2cc(O)cc(O)c12 |  |  |  |  |  |  | 90 | 74.8 | 105 | 101 | 190.5 | 101 | 103 | 151.5 | Dose-dependent effect | 95.9 | 137 | 86.8 | 106 |
| O=c1c(O[C@@H]2O[C@H](CO)[C@@H](O[C@@H]3O[C@H](CO)[C@@H](O)[C@H](O)[C@H]3O)[C@H](O)[C@H]2O)c(-c2ccc(O)c(O)c2)oc2cc(O[C@@H]3O[C@H](CO)[C@@H](O[C@@H]4O[C@H](CO)[C@@H](O)[C@H](O)[C@H]4O)[C@H](O)[C@H]3O)cc(O)c12 |  |  |  |  |  |  | 105 | 95.2 | 104 | 101 | 102.6 | 103 | 102 | 97.8 |  | 104 | 80.3 | 93.9 | 101 |
